This is an account of results in ChEMBL document CHEMBL1201862, “PubChem BioAssay data set” (2004).

Test systems include SNB-75; U-251; HCT-116; OVCAR-4; SR; UACC-62; SK-MEL-5; MOLT-4; SF-539; OVCAR-3; HOP-62; RPMI-8226; SK-MEL-2; SK-MEL-28; HOP-92; SF-295; A498; TK-10; M14; NCI-H226.
Common to all, as to assay: growth of human tumour cells (NCI), 48 h

Molecules are shown by their SMILES.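 48-hour exposure; five concentrations; linearly interpolated endpoints. Here, GI50 denotes the concentration required for 50% inhibition of growth.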 Active and inactive are the calls of the source. Cut-off read from the data, not from the text of the source: active = GI50 up to about 1.1 µM and inactive = higher. Some results are limits rather than exact numbers.

Consider `CCOC(=O)CCC(NC(=O)c1ccc(Nc2nc3ccccc3nc2C(=O)OCC)cc1)C(=O)OCC` (stereo not given), for which the GI50 in the test on SNB-75 is 2.36 µM (inactive); in the test on U-251 it was 3.12 µM (inactive); in the test with HCT-116, 2.95 µM (inactive); in the test on OVCAR-4, 1.61 µM (inactive); in the test with SR, > 39.3 µM (inactive); with UACC-62 it was 3.2 µM (inactive). In addition, the GI50 with SK-MEL-5 is 27.8 µM (inactive); with MOLT-4, > 100 µM (inactive); in the test on SF-539, 2.48 µM (inactive); in the test with OVCAR-3, 2.04 µM (inactive); in the test with HOP-62, 3.89 µM (inactive); in the test on RPMI-8226 it was 6.76 µM (inactive). For the same molecule, the GI50 with SK-MEL-2 is 6.79 µM (inactive); in the test with SK-MEL-28, 8.91 µM (inactive); in the test on HOP-92, 3.91 µM (inactive); in the test with SF-295, 7.71 µM (inactive); with A498 it was 6.79 µM (inactive); with TK-10, 2.92 µM (inactive). Moreover, the GI50 in the test on M14 was 8.89 µM (inactive); with NCI-H226, 3.24 µM (inactive).
With `NNc1cnn(-c2ccccc2)c(=O)c1Cl`, the GI50 in the test with SNB-75, in the test on U-251, in the test with HCT-116, with OVCAR-4, in the test with SR and in the test on UACC-62 was > 100 µM (inactive) in each case. Moreover, the GI50 with SK-MEL-5, with MOLT-4, in the test on SF-539, in the test on OVCAR-3, in the test on HOP-62 and in the test on RPMI-8226 was > 100 µM (inactive) in each case. Also, the GI50 with SK-MEL-2, in the test with SK-MEL-28, in the test on HOP-92, in the test on SF-295, in the test on A498 and in the test on TK-10 was > 100 µM (inactive) in each case. The GI50 in the test with M14 and in the test on NCI-H226 was > 100 µM (inactive) in each case.
Take `Cc1coc2c1C(OC(=O)C(C)C)C1(C)C(C)CCC(O)C1C2=O` (stereo not given): the GI50 with SNB-75 was > 100 µM (inactive); with U-251 it was > 100 µM (inactive); in the test with HCT-116, > 100 µM (inactive); in the test on OVCAR-4 it was > 100 µM (inactive); in the test on SR, 51.2 µM (inactive); in the test on UACC-62, > 100 µM (inactive). Also, the GI50 is > 100 µM (inactive) in the test with SK-MEL-5; 93.1 µM (inactive) in the test with MOLT-4; > 100 µM (inactive) with SF-539; > 100 µM (inactive) in the test on OVCAR-3; > 100 µM (inactive) in the test with HOP-62; 89.5 µM (inactive) with RPMI-8226. Further, the GI50 in the test on SK-MEL-2, in the test with SK-MEL-28, with HOP-92, in the test on SF-295, in the test with A498 and with TK-10 was > 100 µM (inactive) in each case. Further, the GI50 in the test with M14 and in the test with NCI-H226 was > 100 µM (inactive) each time.
Take `CSc1ccc(/C=C2\CN(C)C/C(=C\c3ccc(SC)cc3)C2=O)cc1`: the GI50 in the test on SNB-75 was 12.5 µM (inactive); in the test on U-251, 4.65 µM (inactive); with HCT-116 it was 20.4 µM (inactive); with OVCAR-4, > 100 µM (inactive); with SR, 7.57 µM (inactive); with UACC-62, 55.8 µM (inactive). For the same molecule, the GI50 is 48.8 µM (inactive) in the test with SK-MEL-5; 19.4 µM (inactive) in the test on MOLT-4; 20 µM (inactive) with SF-539; 13.8 µM (inactive) with OVCAR-3; > 100 µM (inactive) with HOP-62; 2.52 µM (inactive) in the test on RPMI-8226. For the same molecule, the GI50 in the test on SK-MEL-2 is 39.4 µM (inactive); with SK-MEL-28, > 100 µM (inactive); with HOP-92, 4.23 µM (inactive); with SF-295, 21.1 µM (inactive); in the test with A498 it was 46.8 µM (inactive); in the test on TK-10 it was 56.6 µM (inactive). Also, the GI50 in the test on M14 was 92.3 µM (inactive); in the test on NCI-H226, > 100 µM (inactive).
Regarding `COC(=O)C1=CC(O)CCC1c1ccc(OC)cc1` (stereo not given), the GI50 with SNB-75, with U-251, with HCT-116, in the test on OVCAR-4, in the test on SR and in the test on UACC-62 was > 100 µM (inactive) in each case. Also, the GI50 in the test on SK-MEL-5, in the test with MOLT-4, in the test on SF-539, in the test with OVCAR-3, with HOP-62 and in the test on RPMI-8226 was > 100 µM (inactive) each time. Further, the GI50 in the test with SK-MEL-2, in the test with SK-MEL-28, in the test with HOP-92, with SF-295, in the test with A498 and in the test with TK-10 was > 100 µM (inactive) each time. Further, the GI50 in the test with M14 and with NCI-H226 was > 100 µM (inactive) in each case.
Consider `COc1ccc(CCNC2=CC(=O)c3ncccc3C2=O)cc1OC`, for which the GI50 in the test with SNB-75 is 0.748 µM (active); in the test with U-251, 0.863 µM (active); in the test on HCT-116, 2.51 µM (inactive); with OVCAR-4, 2.47 µM (inactive); in the test on SR it was 4.24 µM (inactive); with UACC-62 it was 0.435 µM (active). In addition, the GI50 with SK-MEL-5 is 0.184 µM (active); in the test with MOLT-4 it was 5.05 µM (inactive); with SF-539, 2.07 µM (inactive); in the test with OVCAR-3, 0.514 µM (active); with HOP-62 it was 1.89 µM (inactive); in the test with RPMI-8226, 5.57 µM (inactive). Besides, the GI50 is 1.48 µM (inactive) with SK-MEL-2; 1.47 µM (inactive) in the test with SK-MEL-28; 8.95 µM (inactive) in the test on HOP-92; 0.794 µM (active) in the test with SF-295; 1.82 µM (inactive) in the test on A498; 24.3 µM (inactive) in the test with TK-10. In addition, the GI50 with M14 was 1.15 µM (inactive); in the test with NCI-H226, 1.42 µM (inactive).
Turning to `CC(=O)C1=C(O)C(N)C2Cc3c(c(O)c4c(O)c(C)ccc4c3C)C(=O)C2(O)C1=O` (stereo not given), the GI50 in the test on SNB-75 was 3.11 µM (inactive); in the test on U-251 it was 0.885 µM (active); in the test with HCT-116 it was 1.28 µM (inactive); with OVCAR-4 it was 5.61 µM (inactive); in the test on SR, 1.64 µM (inactive); in the test with UACC-62, 1.25 µM (inactive). In addition, the GI50 in the test with SK-MEL-5 was 1.19 µM (inactive); in the test on MOLT-4, 1.71 µM (inactive); in the test on SF-539, 1.35 µM (inactive); in the test with OVCAR-3, 1.3 µM (inactive); in the test on HOP-62 it was 1.58 µM (inactive); with RPMI-8226, 1.27 µM (inactive). Besides, the GI50 with SK-MEL-2 is 3.56 µM (inactive); with SK-MEL-28 it was 2.06 µM (inactive); in the test on HOP-92, 1.6 µM (inactive); in the test on SF-295 it was 1.26 µM (inactive); in the test with A498, 2.8 µM (inactive); in the test on TK-10 it was 1.93 µM (inactive). Besides, the GI50 in the test on M14 was 2.47 µM (inactive); in the test on NCI-H226, 1.56 µM (inactive).
On to `Cc1cc(O)c(C=O)c(C)c1CCC1(C)C=Cc2cc(O)ccc2O1` (stereo not given), for which the GI50 was 22.6 µM (inactive) with SNB-75; 21.4 µM (inactive) with U-251; 16.8 µM (inactive) in the test on HCT-116; 21.9 µM (inactive) with OVCAR-4; > 100 µM (inactive) in the test with SR; 16.7 µM (inactive) in the test on UACC-62. Also, the GI50 in the test on SK-MEL-5 was 25.2 µM (inactive); in the test with MOLT-4, 18.4 µM (inactive); with SF-539, 18.3 µM (inactive); with OVCAR-3, 18.5 µM (inactive); with HOP-62, 20 µM (inactive); in the test on RPMI-8226, 20.9 µM (inactive). Further, the GI50 in the test on SK-MEL-2 was 24.1 µM (inactive); with SK-MEL-28, 22.7 µM (inactive); in the test on HOP-92, 22.2 µM (inactive); in the test with SF-295 it was 23.4 µM (inactive); in the test on A498, 39.8 µM (inactive); in the test on TK-10, 46.5 µM (inactive). Moreover, the GI50 is 17.5 µM (inactive) with M14 and 26.5 µM (inactive) in the test on NCI-H226.
`CCOC(=O)c1cccc(/N=N/c2ncc(/C=C/C(=O)OC)[nH]2)c1`: the GI50 was 26.4 µM (inactive) in the test with SNB-75; 22.6 µM (inactive) in the test with U-251; 18.2 µM (inactive) with HCT-116; 17.9 µM (inactive) in the test on OVCAR-4; 4.12 µM (inactive) in the test with SR; 21.5 µM (inactive) in the test on UACC-62. Also, the GI50 with SK-MEL-5 is 10.8 µM (inactive); in the test on MOLT-4, 6.97 µM (inactive); in the test on SF-539, 21.5 µM (inactive); with OVCAR-3, 23.3 µM (inactive); with HOP-62, 16.3 µM (inactive); in the test with RPMI-8226, 16.3 µM (inactive). The GI50 in the test with SK-MEL-2 is 27.4 µM (inactive); in the test on SK-MEL-28 it was 27 µM (inactive); in the test with HOP-92 it was 32.1 µM (inactive); with SF-295, 20.4 µM (inactive); in the test with A498, 20.8 µM (inactive); in the test with TK-10, 26.5 µM (inactive). The GI50 in the test with M14 was 26 µM (inactive); in the test on NCI-H226 it was 36.1 µM (inactive).
As to `O=S(=O)(O)c1ccc([Se][Se]c2ccc(S(=O)(=O)O)cc2)cc1`, the GI50 is > 100 µM (inactive) in the test with SNB-75; > 100 µM (inactive) in the test with U-251; > 100 µM (inactive) in the test with HCT-116; > 100 µM (inactive) with OVCAR-4; 27.9 µM (inactive) in the test on SR; > 100 µM (inactive) in the test on UACC-62. The GI50 in the test with SK-MEL-5 is > 100 µM (inactive); with MOLT-4, > 100 µM (inactive); in the test with SF-539 it was > 100 µM (inactive); in the test on OVCAR-3, > 100 µM (inactive); in the test with HOP-62, > 100 µM (inactive); in the test on RPMI-8226 it was 72.4 µM (inactive). Further, the GI50 with SK-MEL-2, in the test on SK-MEL-28, in the test on HOP-92, with SF-295, with A498 and with TK-10 was > 100 µM (inactive) each time. For the same molecule, the GI50 in the test with M14 and with NCI-H226 was > 100 µM (inactive) in each case.
